One molecule from patent US20260000794A1, “IN VIVO TRANSITION METAL DETECTION” (The University of Sydney, priority 2022, published 2026) can be followed below.

The structures appear in SMILES notation. Entries after “also recorded” stand apart in the source; their conditions may differ.

The test system of data set [1] is SWISS mice. Description: DIVE microscopy of fluorescent emission in CuATSM-treated vs untreated mice after F—NpCul injection (FIG. 5, FIG. 6). It is filed as in vivo, mouse. The settings on record: 4 mg/kg F—NpCul i.v. tail vein, CuATSM 15 mg/kg orally daily for eight days. How it is done:
(§1) In this work, anaesthetised SWISS mice underwent a craniotomy surgery to expose a region of parietal cortex. Imaging was performed through this cranial window with a water dipping objective lens. 4 mg/kg F—NpCul was i.v. injected through the tail vein after three minutes. F—NpCul was excited at 920 nm and emission was 504-577nm. “Treated” mice (n=3) were orally administered the copper-delivery compound CuATSM (15 mg/kg) daily for eight days to increase brain copper levels prior to imaging while control mice (n=3, “Untreated”) received no treatment. For each mouse at all time points, fluorescent emission per unit area (arbitrary units) from five representative regions of interest (ROIs) within vasculature and five ROIs in surrounding tissue was quantified from a projected image combining 130 μm depth. Baseline fluorescence from an image acquired prior to probe injection was subtracted from all fluorescent measurements which were then averaged at each time point. Comparison of average fluorescent emission intensity between control and CuATSM-treated mice was undertaken for a) brain tissue and b) vasculature. Unpaired t-tests with significance p<0.05 were performed to describe the temporal pattern of change. Error bars show mean ±SEM.
(§2) Anaesthetised SWISS mice underwent a craniotomy surgery to create a cranial window exposing parietal cortex. […]

In data set [2] the test system is SH-SY5Y cells. Description: Confocal microscopy of F—NpCul fluorescence in cells with copper loading or depletion (FIG. 4). It is filed as cell-based, human. As for the experimental part: SH-SY5Y cells were used, which are a human neuron-like cell line. SH-SY5Y cells were maintained at 37° C. in 5% CO2. Cells were cultured in Dulbecco's Modified Eagle's Medium (DMEM, Thermo Fisher Scientific) supplemented with 10% foetal calf serum (FCS, Thermo Fisher Scientific) and 2.5 mM L-glutamine (Sigma-Aldrich). Fluorobrite DMEM (FDMEM, Thermo Fisher Scientific) was supplemented with 10% FCS and 2.5 mM L-glutamine, unless otherwise stated.
For all imaging experiments, 1.5×10^5 cells were seeded into 35 mm glass bottom dishes (MatTek) and allowed to adhere overnight. 10 mM stock solutions of F—NpCul CuATSM were freshly prepared in DMSO. A 10 mM stock solution of BCS was freshly prepared in MilliQ water. For experiments cells were dosed with nothing (vehicle), 1 μL of 10 mM CuATSM stock in 1 mL DMEM or 10 μL of 10 mM BCS solution in 1 mL DMEM. […]
Images were obtained at 37° C. in a 5% CO2 atmosphere on an Olympus Fluo View FV3000 Confocal Laser Scanning Microscope, equipped with an Olympus 60× water objective (UPLSAPO60XW) and 405 and 640 nm lasers, unless otherwise stated. All samples were excited at 405 nm, and fluorescence emission collected from 510-610 nm. […] Data is presented as the mean fluorescence intensities of 40-50 cell clusters chosen as regions of interest from 10 images representative of each condition.

The test system of data set [3] is mice. Description: Observation of signs of toxicity in the in vivo studies. More on the design: species or system mouse. The settings on record: in vivo imaging studies, 4 mg/kg F—NpCul. How it is done:
as §1, §2

As to `CCSCCN(CCSCC)Cc1cn(C(=O)OCCOCCNc2ccc3c4c(cccc24)C(=O)N(CCF)C3=O)cn1` [F—NpCul], in data set [1], the “reported copper levels within the vasculature, treated vs untreated mice” value was “equivalent”. Further, the “fluorescent signal in brain tissue, CuATSM-treated vs untreated mice” value in data set [1] (parietal cortex, excitation 920 nm, emission 504-577 nm) is given as “significantly higher; also recorded: Higher fluorescent signal is observed in CuATSM-treated mice compared to control”. Further, in data set [2] (10 μM F—NpCul, cells treated with vehicle, 10 μM CuATSM (copper-loading) or 100 μM BCS (copper-depleting) for 1 h, P<0.001 v vehicle), the “mean fluorescence intensity response to copper status” value is “sensitive to both an accumulation and a deficiency of copper”. In data set [2] (preliminary results), the “bioavailability and cell uptake, reporting intracellular Cu(I) levels” value was “bioavailable and can be taken up by cells to report intracellular Cu(I) levels”. Moreover, the “signs of toxicity following F—NpCul exposure” value in data set [3] is on record as “no signs of toxicity”.
